Drawing on PubChem BioAssay (NCI), this text covers TGI for 5 molecules.

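96-well plates; 48 h exposure; 5 concentrations. Endpoints by linear interpolation between flanking doses. Not reached: highest tested concentration assigned. TGI is the concentration that stops growth completely.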 A value given as a limit tells only on which side of the number the result lay.

Some test systems named below: KM20L2 colon; HOP-62 NSCLC; M19-MEL melanoma; UACC-62 melanoma; HT29 colon; LOX IMVI melanoma; SK-MEL-2 melanoma; A549 NSCLC; SK-OV-3 ovarian; TK-10 renal; NCI-H23 lung; OVCAR-4 ovarian; OVCAR-3 ovarian; SN12C renal; IGROV1 ovarian; M14 melanoma; SK-MEL-5 melanoma; SNB-19 CNS; DLD-1 colon; KM12 colon.
Common to all, as to assay: NCI-60 cell line screen, 48 h

As to `C=CCc1c(O)c2c(c3oc(=O)cc(C)c13)CC(C)O2` (stereo not given), the TGI in the assay on KM20L2 colon, in the assay with HOP-62 NSCLC, in the assay with M19-MEL melanoma, in the assay with UACC-62 melanoma, in the assay with HT29 colon and in the assay with LOX IMVI melanoma was greater than 100 µM in each case. Further, the TGI with SK-MEL-2 melanoma, in the assay with A549 NSCLC, in the assay with SK-OV-3 ovarian, in the assay with TK-10 renal, in the assay with NCI-H23 lung and in the assay with OVCAR-4 ovarian was greater than 100 µM each time. Further, the TGI in the assay with OVCAR-3 ovarian, with SN12C renal, in the assay with IGROV1 ovarian, with M14 melanoma, in the assay on SK-MEL-5 melanoma and in the assay with SNB-19 CNS was greater than 100 µM throughout. Also, the TGI in the assay on DLD-1 colon was greater than 100 µM.

Consider `O=c1cc[nH]c(=O)[nH]1`, for which the TGI in the assay with KM12 colon was 846 µM; in the assay with KM20L2 colon, greater than 1000 µM; in the assay with HOP-62 NSCLC it was greater than 872 µM; in the assay on M19-MEL melanoma, greater than 944 µM; in the assay on UACC-62 melanoma, greater than 1000 µM; in the assay with HT29 colon, greater than 1000 µM. Moreover, the TGI in the assay on LOX IMVI melanoma was 866 µM; with SK-MEL-2 melanoma, greater than 1000 µM; with A549 NSCLC, greater than 1000 µM; with SK-OV-3 ovarian, greater than 1000 µM; with NCI-H23 lung, greater than 315 µM; in the assay on OVCAR-4 ovarian, greater than 1000 µM. For the same molecule, the TGI was greater than 1000 µM with OVCAR-3 ovarian; greater than 917 µM in the assay on SN12C renal; greater than 1000 µM in the assay on IGROV1 ovarian; 342 µM in the assay on SK-MEL-5 melanoma; 828 µM with SNB-19 CNS; greater than 1000 µM with DLD-1 colon.

For `NC(CCCCCP(=O)(c1ccccc1)C1C=CC=CC1)C(=O)O` (stereo not given), the TGI in the assay on KM12 colon, in the assay on UACC-62 melanoma, in the assay on HT29 colon, with LOX IMVI melanoma, in the assay on SK-MEL-2 melanoma and in the assay with A549 NSCLC was greater than 100 µM throughout. Besides, the TGI in the assay with SK-OV-3 ovarian, in the assay with TK-10 renal, in the assay on NCI-H23 lung, with OVCAR-4 ovarian, in the assay with OVCAR-3 ovarian and in the assay with SN12C renal was greater than 100 µM each time. The TGI with IGROV1 ovarian, with M14 melanoma, in the assay on SK-MEL-5 melanoma and in the assay with SNB-19 CNS was greater than 100 µM each time.

Consider `O=c1sc2ccccc2n1CC1CS1` (stereo not given), for which the TGI in the assay with KM12 colon, in the assay with KM20L2 colon, with HOP-62 NSCLC, in the assay on M19-MEL melanoma, in the assay on UACC-62 melanoma and with HT29 colon was greater than 100 µM each time. The TGI with LOX IMVI melanoma, in the assay with SK-MEL-2 melanoma, in the assay with A549 NSCLC, with SK-OV-3 ovarian, in the assay with TK-10 renal and in the assay with OVCAR-4 ovarian was greater than 100 µM in each case. For the same molecule, the TGI with OVCAR-3 ovarian, with SN12C renal, in the assay on IGROV1 ovarian, in the assay on M14 melanoma and with SNB-19 CNS was greater than 100 µM in each case.

Take `CC(=O)OC1/C=C(\C)C(OC(C)=O)C/C=C(/C)CCC2C(/C=C/C1=O)C2(C)C` (stereo not given): the TGI in the assay on KM12 colon, in the assay with KM20L2 colon, in the assay on HOP-62 NSCLC, in the assay on M19-MEL melanoma, with UACC-62 melanoma and in the assay on HT29 colon was greater than 100 µM in each case. In addition, the TGI in the assay on LOX IMVI melanoma, in the assay with SK-MEL-2 melanoma, in the assay on A549 NSCLC, in the assay on SK-OV-3 ovarian, in the assay with TK-10 renal and in the assay on NCI-H23 lung was greater than 100 µM throughout. Also, the TGI in the assay on OVCAR-4 ovarian, with OVCAR-3 ovarian, in the assay with SN12C renal, in the assay on IGROV1 ovarian, in the assay on M14 melanoma and in the assay on SK-MEL-5 melanoma was greater than 100 µM each time. Besides, the TGI in the assay on SNB-19 CNS and with DLD-1 colon was greater than 100 µM in each case.
